Laboratory results published in patent publication US12624023B2, “Sulfonylurea derivatives and uses thereof” (NodThera Limited, priority 2019, dated 2026).

How the values were obtained:
[1] = system: IL-1β release upon NLRP3 activation in peripheral blood mononuclear cells (PBMC); test: PBMC IC50 determination assay (IL-1β release, LPS priming + ATP stimulation, HTRF); type: cell-based; conditions: PBMC from buffy coats; LPS 1 μg/ml 3 h, compound 30 min, ATP 5 mM 1 h; IL-1β by HTRF
Method in brief: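 Buffy-coat PBMC were primed with LPS (1 μg/ml) for 3 h, given compound for 30 min, then stimulated with 5 mM ATP for 1 h. IL-1β released into the medium was quantified by HTRF, reading 655 and 620 nm.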

[2] = system: IL-1β release upon NLRP3 activation in human whole blood; test: Whole blood (WB) assay (IL-1β release, LPS priming + ATP stimulation, HTRF); type: cell-based; conditions: heparin, diluted 9:5 with media, LPS 1 μg/ml 3 h, compound 30 min, ATP 5 mM 1 h, IL-1β by HTRF
Method in brief: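 Heparinised human whole blood, diluted 9:5 in medium, was primed with LPS (1 μg/ml final) for 3 h. Compound was then added for 30 min, followed by ATP (5 mM final) for 1 h. Secreted IL-1β was measured in the media by HTRF (655/620 nm).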

IC50 [2] [µM]	SMILES	IC50 [1] [µM]
1 to 3	COc1sc2c(c1NC(=O)NS(=O)(=O)N(c1cnn(C)c1)C1CCCN(C)C1)CCC2 (stereo not shown) [Compound 102, 3-{2-Methoxy-4H,5H,6H-cyclopenta[b]thiophen-3-yl}-1-[(1-methyl-1H-pyrazol-4-yl)(1-methylpiperidin-3-yl)sulfamoyl]urea]	0.1 to 0.5
< 1	Cc1c(C(C)C)sc(C(C)C)c1NC(=O)NS(=O)(=O)N(c1cnn(C)c1)[C@@H]1CCCN(C)C1 [Compound 67, 1-[(1-Methyl-1H-pyrazol-4-yl)[(3R)-1-methylpiperidin-3-yl]sulfamoyl]-3-[4-methyl-2,5-bis(propan-2-yl)thiophen-3-yl]urea]	0.1 to 0.5
< 1	CCc1cc(NC(=O)NS(=O)(=O)N(c2cnn(C)c2)C2CCCN(C)C2)c(CC)s1 (stereo not shown) [Compound 13, 3-(2,5-Diethylthiophen-3-yl)-1-[(1-methyl-1H-pyrazol-4-yl)(1-methylpiperidin-3-yl)sulfamoyl]urea]	< 0.1
3 to 10	Cc1csc(C)c1NC(=O)NS(=O)(=O)N(c1cnn(C)c1)C1CCCN(C)C1 (stereo not shown) [Compound 9, 3-(2,4-Dimethylthiophen-3-yl)-1-[(1-methyl-1H-pyrazol-4-yl)(1-methyl-piperidin-3-yl)sulfamoyl]urea]	1 to 5
10 to 20	CN1CCCC(N(c2cnn(C)c2)S(=O)(=O)NC(=O)Nc2c(C(C)(C)C)sc3c2CCC3)C1 (stereo not shown) [Compound 122, 3-{2-Tert-butyl-4H,5H,6H-cyclopenta[b]thiophen-3-yl}-1-[(1-methyl-1H-pyrazol-4-yl)(1-methylpiperidin-3-yl)sulfamoyl]urea]	0.5 to 1
1 to 3	CCc1sc2c(c1NC(=O)NS(=O)(=O)N(c1cnn(C)c1)C1CCCN(C)C1)CCCC2 (stereo not shown) [Compound 86, 3-(2-Ethyl-4,5,6,7-tetrahydro-1-benzothiophen-3-yl)-1-[(1-methyl-1H-pyrazol-4-yl)(1-methylpiperidin-3-yl)sulfamoyl]urea]	0.1 to 0.5
1 to 3	Cc1sc2ccccc2c1NC(=O)NS(=O)(=O)N(c1cnn(C)c1)C1CCCN(C)C1 (stereo not shown) [Compound 12, 3-(2-Methyl-1-benzothiophen-3-yl)-1-[(1-methyl-1H-pyrazol-4-yl)(1-methyl-piperidin-3-yl)sulfamoyl]urea]	0.5 to 1
< 1	Cc1sc2c(c1NC(=O)NS(=O)(=O)N(c1cnn(C3CC3)c1F)C1CCCN(C)C1)CCC2 (stereo not shown) [Compound 113, 1-[(1-Cyclopropyl-5-fluoro-1H-pyrazol-4-yl)(1-methylpiperidin-3-yl)sulfamoyl]-3-{2-methyl-4H,5H,6H-cyclopenta[b]thiophen-3-yl}urea]	< 0.1
< 1	CC(C)c1cc(NC(=O)NS(=O)(=O)N(c2cnn(C)c2)C2CCCN(C)C2)c(C(C)C)s1 (stereo not shown) [Compound 11, 3-[2,5-Bis(propan-2-yl)thiophen-3-yl]-1-[(1-methyl-1H-pyrazol-4-yl)(1-methyl-piperidin-3-yl)sulfamoyl]urea]	< 0.1
1 to 3	Cc1sc2c(c1NC(=O)NS(=O)(=O)N(c1cnn(C)c1)[C@H]1C[C@H](F)CN(C)C1)CCC2 [Compound 110, 1-{[(3S,5S)-5-Fluoro-1-methylpiperidin-3-yl](1-methyl-1H-pyrazol-4-yl)sulfamoyl}-3-{2-methyl-4H,5H,6H-cyclopenta[b]thiophen-3-yl}urea]	0.1 to 0.5
< 1	Cc1cc(NC(=O)NS(=O)(=O)N(c2cnn(C)c2)[C@H]2CCCN(C)C2)c(C(C)C)s1 [Compound 81, 1-[(1-Methyl-1H-pyrazol-4-yl)[(3S)-1-methylpiperidin-3-yl]sulfamoyl]-3-[5-methyl-2-(propan-2-yl)thiophen-3-yl]urea]	< 0.1
< 1	Cc1sc2c(c1NC(=O)NS(=O)(=O)N(c1cnn(C)c1)C1CCCN(C)C1)CCCC2 (stereo not shown) [Compound 97, 1-[(1-Methyl-1H-pyrazol-4-yl)(1-methylpiperidin-3-yl)sulfamoyl]-3-(2-methyl-4,5,6,7-tetrahydro-1-benzothiophen-3-yl)urea]	0.1 to 0.5
1 to 3	Cc1cc(NC(=O)NS(=O)(=O)N(c2cnn(C)c2)C2CCCN(C)C2)c(C)s1 (stereo not shown) [Compound 8, 3-(2,5-Dimethylthiophen-3-yl)-1-[(1-methyl-1H-pyrazol-4-yl)(1-methyl-piperidin-3-yl)sulfamoyl]urea]	1 to 5
< 1	CCc1oc2c(c1NC(=O)NS(=O)(=O)N(c1cnn(C)c1)C1CCCN(C)C1)CCCC2 (stereo not shown) [Compound 94, 3-(2-Ethyl-4,5,6,7-tetrahydro-1-benzofuran-3-yl)-1-[(1-methyl-1H-pyrazol-4-yl)(1-methylpiperidin-3-yl)sulfamoyl]urea]	0.1 to 0.5
< 1	CC(C)c1sc(Cl)cc1NC(=O)NS(=O)(=O)N(c1cnn(C)c1)[C@H]1CCCN(C)C1 [Compound 80, 3-[5-Chloro-2-(propan-2-yl)thiophen-3-yl]-1-[(1-methyl-1H-pyrazol-4-yl)[(3S)-1-methylpiperidin-3-yl]sulfamoyl]urea]	< 0.1

Second part, the molecule before the results:

SMILES	IC50 [2] [µM]	IC50 [1] [µM]
CC(C)c1cc(NC(=O)NS(=O)(=O)N(c2cnn(C)c2)C2CCCN(C)C2)c(C(C)C)o1 (stereo not shown) [Compound 73, 3-[2,5-Bis(propan-2-yl)furan-3-yl]-1-[(1-methyl-1H-pyrazol-4-yl)(1-methylpiperidin-3-yl)sulfamoyl]urea]	< 1	< 0.1
CC(C)c1cc(NC(=O)NS(=O)(=O)N(c2cnn(C(C)C)c2)[C@@H]2CCCN(C)C2)c(C(C)C)s1 [Compound 55, 3-[2,5-Bis(propan-2-yl)thiophen-3-yl]-1-{[(3R)-1-methylpiperidin-3-yl][1-(propan-2-yl)-1H-pyrazol-4-yl]sulfamoyl}urea]	< 1	< 0.1
CC(C)c1cc(NC(=O)NS(=O)(=O)N(c2cnn(C(C)C)c2)[C@H]2CCCN(C)C2)c(C(C)C)s1 [Compound 84, 3-[2,5-Bis(propan-2-yl)thiophen-3-yl]-1-{[(3S)-1-methylpiperidin-3-yl][1-(propan-2-yl)-1H-pyrazol-4-yl]sulfamoyl}urea]	< 1	< 0.1
CCc1cc(NC(=O)NS(=O)(=O)N(c2cnn(C)c2)C2CCOCC2)c(CC)s1 [Compound 4, 3-(2,5-Diethylthiophen-3-yl)-1-[(1-methyl-1H-pyrazol-4-yl)(oxan-4-yl)sulfamoyl]urea]	10 to 20	1 to 5
Cc1sc2ccccc2c1NC(=O)NS(=O)(=O)N(c1cnn(C)c1)C1CCOCC1 [Compound 3, 3-(2-Methyl-1-benzothiophen-3-yl)-1-[(1-methyl-1H-pyrazol-4-yl)(oxan-4-yl)sulfamoyl]urea]	> 20	1 to 5
Cc1cc(NC(=O)NS(=O)(=O)N(c2cnn(C)c2)[C@@H]2CCN(C)C2)c(C(C)C)s1 [Compound 130, 1-[(1-Methyl-1H-pyrazol-4-yl)[(3R)-1-methylpyrrolidin-3-yl]sulfamoyl]-3-[5-methyl-2-(propan-2-yl)thiophen-3-yl]urea]	< 1	< 0.1
CC(C)c1sc(C#N)cc1NC(=O)NS(=O)(=O)N(c1cnn(C)c1)C1CCCN(C)C1 (stereo not shown) [Compound 131, 3-[5-Cyano-2-(propan-2-yl)thiophen-3-yl]-1-[(1-methyl-1H-pyrazol-4-yl)(1-methylpiperidin-3-yl)sulfamoyl]urea]	3 to 10	0.5 to 1
CCc1cc(NC(=O)NS(=O)(=O)N(c2cnn(C)c2)C2CCCN(C)C2)c(CC)o1 (stereo not shown) [Compound 28, 3-(2,5-Diethylfuran-3-yl)-1-[(1-methyl-1H-pyrazol-4-yl)(1-methylpiperidin-3-yl)sulfamoyl]urea]	1 to 3	0.1 to 0.5
CC(C)c1csc(C(C)C)c1NC(=O)NS(=O)(=O)N(c1cnn(C)c1)C1CCCN(C)C1 (stereo not shown) [Compound 16, 3-[2,4-Bis(propan-2-yl)thiophen-3-yl]-1-[(1-methyl-1H-pyrazol-4-yl)(1-methyl-piperidin-3-yl)sulfamoyl]urea]	1 to 3	0.1 to 0.5
CCc1cc(NC(=O)NS(=O)(=O)N(c2cnn(C)c2)[C@@H]2CCCN(C)C2)c(C(C)C)s1 [Compound 61, 3-[5-Ethyl-2-(propan-2-yl)thiophen-3-yl]-1-[(1-methyl-1H-pyrazol-4-yl)[(3R)-1-methylpiperidin-3-yl]sulfamoyl]urea]	3 to 10	< 0.1
CC(C)c1cc(NC(=O)NS(=O)(=O)N(c2cnn(C)c2)C2CCOCC2)c(C(C)C)s1 [Compound 6, 3-[2,5-Bis(propan-2-yl)thiophen-3-yl]-1-[(1-methyl-1H-pyrazol-4-yl)(oxan-4-yl)sulfamoyl]urea]	> 20	0.5 to 1
CC(C)c1cc(NC(=O)NS(=O)(=O)N(CCN(C)C)c2cnn(C)c2)c(C(C)C)s1 [Compound 18, 3-[2,5-Bis(propan-2-yl)thiophen-3-yl]-1-{[2-(dimethylamino)ethyl](1-methyl-1H-pyrazol-4-yl)sulfamoyl}urea]	1 to 3	0.1 to 0.5
CCc1cc(NC(=O)NS(=O)(=O)N(c2cnn(C)c2)C2CCOCC2)c(CC)o1 [Compound 65, 3-(2,5-Diethylfuran-3-yl)-1-[(1-methyl-1H-pyrazol-4-yl)(oxan-4-yl)sulfamoyl]-urea]	> 20	1 to 5
CCc1cc(NC(=O)NS(=O)(=O)N(C[C@@H]2C[C@@H](F)CN2C)c2cnn(C)c2)c(CC)o1 [Compound 62, 1-(2,5-Diethylfuran-3-yl)-3-({[(2S,4R)-4-fluoro-1-methylpyrrolidin-2-yl]methyl}(1-methyl-1H-pyrazol-4-yl)sulfamoyl)urea]	1 to 3	0.5 to 1
